Here are results for 2 molecules from patent US20060088556A1 (priority 2003, published 2006).

The solubility is the concentration that dissolves in the medium under given conditions. A higher solubility goes with a readily soluble substance.

Data set [1] relates to oxazolone hypersensitivity reaction. The settings on record: mice, cited from earlier work.
Data set [2] can be described thus: Stability in the receiver fluid. It is filed as physicochemical. The following applies: PBS receiver fluid, length of the study (48 hours). From the text: (§1) Accurate determination of the rate of transport of buspirone through the skin relies upon the maintenance of sink conditions in the receiver fluid. […] Such high solubility was sufficient to ensure sink conditions for the study.

A short description of data set [3]: Solubility in phosphate buffered saline (receiver fluid). The class given is physicochemical. The following applies: aqueous buffer.
From the text: as §1

Counter-ions that a name gives are not always drawn.

Regarding `O=C1CC2(CCCC2)CC(=O)N1CCCCN1CCN(c2ncccn2)CC1` [buspirone, 8-[4-[4-(2-pyrimidyl)-1-piperazinyl]butyl]-8-azaspiro[4.5]decane-7,9-dione], the oxazolone ear swelling result in data set [1] (applied topically in an undefined solution, over the range 100 mg/ml to 0.25 mg/ml, McAloon et al. 1995) is recorded as “inhibits oxazolone ear swelling”. The “inhibition of oxazolone hypersensitivity reactions” value in data set [1] (from U.S. Pat. No. 5,484,788, 5,631,017, WO 94/22448) is given as “inhibit oxazolone hypersensitivity reactions”. In addition, the “stability in the receiver fluid” value in data set [2] was “stable”.

Consider `O=C1CC2(CCCC2)CC(=O)N1CCCCN1CCN(c2ncccn2)CC1` [buspirone hydrochloride], for which, in data set [3], the solubility was > 3000 µg/mL.
